Assay results as given in patent publication US20120022033A1, “Methods for decreasing cardiovascular risk in postmenopausal women” (BIOSANTE PHARMACEUTICALS, INC., priority 2010, published 2012).

Test system: postmenopausal women at high risk for cardiovascular events
Experiment: Randomized, double-blind, placebo-controlled, multi-center Phase 3 study; observed vs expected cardiovascular events
Assay type: in vivo
Conditions: postmenopausal women at high risk for cardiovascular disease, compared with untreated group
Text: The following example calculates the expected number of cardiovascular events in a population of postmenopausal women derived from historical data. The estimate of the expected rate of cardiovascular events has been determined from the event rates noted in the Women's Health Initiative (WHI), a Department of Health and Human Services National Institute of Health-sponsored study of women between 50 and 79 years of age, a similar set of women between that age were enrolled for determining the actual number of cardiovascular events as described in Example 2.
Overall, the cardiovascular event rate in women in the WHI study who had at least one cardiovascular risk factor was approximately 2-fold greater than in women without any cardiovascular risk factors. […]
The study consisted of a screening period of up to 8 weeks and a 60-month treatment period. […] Adverse cardiovascular and breast cancer events (ABC events) were assessed at each subject contact in addition to the usual assessments of safety and concomitant medications. […]
There were eight adjudicated cardiovascular events determined from this Phase 3 clinical trial after greater than 4,000 woman-years of therapy.

## C[C@]12CC[C@H]3[C@@H](CCC4=CC(=O)CC[C@@]43C)[C@@H]1CC[C@@H]2O [testosterone, testosterone (17-β-hydroxyandrostenone)]
  risk of having a cardiovascular event (result in words): decreases in the risk of having a cardiovascular event
